Results taken from patent publication US6864253B2, “Benzo[4,5]thieno[2,3-c]pyridine and Benzo[4,5]furo[2,3-c]pyridine Derivatives Useful as Inhibitors of Phosphodiesterase” (Orth-McNeil Pharmaceutical, Inc., priority 2000, dated 2005).

Target: PDEV (Oryctolagus cuniculus, UniProt G1SX67)
Assay: Cyclic nucleotide phosphodiesterase (PDE) assay, inhibition of PDEV isolated from rabbit tissue
Format: biochemical
Settings: not given
Protocol: Briefly, rabbit or human tissues were homogenized in an ice-cold buffer solution containing 20 mM HEPES (pH 7.2), 0.25M sucrose, 1 mM EDTA, and 1 mM phenylmethylsulphonyl fluoride (PMSF). The homogenates were centrifuged at 100,000 g for 60 minutes at 4° C. The supernatant was filtered through […] filter and loaded on a Pharmacia Mono Q anion exchange column (1 ml bed volume) that was equilibrated with 20 mM HEPES, 1 mM EDTA and 0.5 mM PMSF. […] The fractions comprising various PDE activities were pooled separately and used in later studies.
The assays were adapted to a 96-well format. The enzyme was assayed in 5 mM MgCl2, 15 mM Tris HCl (pH 7.4), 0.5 mg/ml bovine serum albumin, 1 μM cGMP or cAMP, 0.1 μCi [^3H]-cGMP or [^3H]-cAMP, and 2-10 μl of column elution. The total volume of the assay was 100 μl. The reaction mixture was incubated at 30° C. for 30 minutes. The reaction was stopped by boiling for 1 minute and then cooled down on ice. The resulting [^3H] 5′-mononucleotides were further converted to uncharged [^3H]-nucleosides by adding 25 μl 1 mg/ml snake venom (Ophiophagus hannah) and incubating at 30° C. for 10 minute. The reaction was stopped by the addition of 1 ml Bio-Rad AG1-X2 resin slurry (1:3). All the charged nucleotides were bound by the resin and only the uncharged [^3H]-nucleosides remained in the supernatant after centrifuging. An aliquot of 200 μl was taken and counted by liquid scintillation. PDE activity was expressed as pmol cyclic nucleotide hydrolyzed/min/ml of enzyme preparation.
Inhibitor studies were carried out in assay buffer with a final concentration of 10% DMSO.

SMILES | IC50
CN(C)CCn1c2c(c3ccccc31)CCN(c1nc3ccccc3o1)C2c1ccc2c(c1)OCO2 (centres unmarked) [Cmpd 155] | 9.2 µM

Same assay, conditions: 10 μM test compound; rabbit PDEV

SMILES | % Inh @ 10 μM (rabbit) | % INH @ 10 μM (rabbit)
O=C(c1cnn(-c2ccccc2)c1C(F)(F)F)N1CCc2c([nH]c3ccccc23)C1c1ccc(Cl)c(Cl)c1 (racemic) [Cmpd 120] | 18% | 
c1ccc2sc(N3CCc4c([nH]c5ccccc45)C3c3ccc4c(c3)OCO4)nc2c1 (centres unmarked) [Cmpd 3] | 84% | 
N#Cc1ccc(C2c3[nH]c4ccccc4c3CCN2C(=O)c2ccc(-c3cccc([N+](=O)[O-])c3)o2)cc1 (centres unmarked) [Cmpd 80] | 27% | 
c1ccc2oc(N3CCc4c(n(-c5nc6ccccc6o5)c5ccccc45)C3c3ccc4c(c3)OCO4)nc2c1 (centres unmarked) [Cmpd 150] |  | 4%
O=C(c1ccc(-c2cc(C(F)(F)F)ccc2Cl)o1)N1CCc2c([nH]c3ccccc23)C1c1ccc2c(c1)OCO2 (centres unmarked) [Cmpd 57] | 76% | 
O=C(c1ccc(-c2cccc(C(F)(F)F)c2)o1)N1CCc2c(n(CCN3CCOCC3)c3ccccc23)C1c1ccc2c(c1)OCO2 (centres unmarked) [Cmpd 28] | 94% | 
Cc1ccc(C2c3[nH]c4ccccc4c3CCN2C(=O)c2cc(C(C)(C)C)nn2Cc2ccccc2)cc1C (centres unmarked) [Cmpd 135] | 8% | 
O=C(c1ccc(-c2ccc(Cl)cc2)s1)N1CCc2c([nH]c3ccccc23)C1c1ccc2c(c1)OCO2 (centres unmarked) [Cmpd 91] | 82% | 
CC(=O)Nc1cccc(-c2ccc(C(=O)N3CCc4c([nH]c5ccccc45)C3c3ccc4c(c3)OCO4)o2)c1 (centres unmarked) [Cmpd 55] | 70% | 
O=C(c1ccc(C(F)(F)F)o1)N1CCc2c([nH]c3ccccc23)C1c1ccc2c(c1)OCO2 (centres unmarked) [Cmpd 62] | 86% | 
COC(=O)Cn1c2c(c3ccccc31)CCN(C(=O)c1ccc(-c3cccc(C(F)(F)F)c3)o1)C2c1ccc2c(c1)OCO2 (centres unmarked) [Cmpd 25] | 20% | 
Cc1cc(C)cc(C2c3[nH]c4ccccc4c3CCN2C(=O)c2cc(C(C)(C)C)nn2Cc2ccccc2)c1 (centres unmarked) [Cmpd 137] | −3% | 
CC(C)(C)c1cc(C(=O)N2CCc3c([nH]c4ccccc34)C2c2ccc(C#N)cc2)n(Cc2ccccc2)n1 (centres unmarked) [Cmpd 139] | −9% | 
COc1ccc(C2c3[nH]c4ccccc4c3CCN2C(=O)c2cc(C(C)(C)C)nn2Cc2ccccc2)cc1OC (centres unmarked) [Cmpd 134] | 5% | 
COC(=O)c1ccc(C2c3[nH]c4ccccc4c3CCN2C(=O)c2c(-c3ccccc3)noc2C)cc1 (racemic) [Cmpd 116] | 32% | 
CN(C)CCn1c2c(c3ccccc31)CCN(C(=O)c1ccc(-c3ccc(Cl)cc3)o1)C2c1ccc2c(c1)OCO2 (centres unmarked) [Cmpd 39] | 93% | 
N#Cc1ccc(C2c3[nH]c4ccccc4c3CCN2C(=O)c2ccc(-c3cccc(C(F)(F)F)c3)o2)cc1 (centres unmarked) [Cmpd 81] | 18% | 
O=C(O)C1Cc2c([nH]c3ccccc23)C(c2ccc3c(c2)OCO3)N1C(=O)c1ccc(-c2cccc([N+](=O)[O-])c2)o1 (centres unmarked) [Cmpd 67] | 50% | 
CN(C)CCOC(=O)C1Cc2c([nH]c3ccccc23)C(c2ccc3c(c2)OCO3)N1C(=O)c1ccc(-c2cccc([N+](=O)[O-])c2)o1 (centres unmarked) [Cmpd 68] | 35% | 
O=C(c1cc2ccccc2s1)N1CCc2c([nH]c3ccccc23)C1c1ccc2c(c1)OCO2 (centres unmarked) [Cmpd 18] | 87% | 
O=S(=O)(c1ccccc1)c1ccc(S(=O)(=O)N2CCc3c([nH]c4ccccc34)C2c2ccc3c(c2)OCO3)s1 (centres unmarked) [Cmpd 145] | 43% | 
CC(=O)Nc1ccc(-c2ccc(C(=O)N3CCc4c([nH]c5ccccc45)C3c3ccc4c(c3)OCO4)o2)cc1 (centres unmarked) [Cmpd 49] | 60% | 
O=C(c1ccc(-c2ccc(Cl)cc2)o1)N1CCc2c(sc3ccccc23)C1c1ccc2c(c1)OCO2 (centres unmarked) [Cmpd 77] | 58% | 
Cc1cc(C(=O)N2CCc3c([nH]c4ccccc34)C2c2ccc(OCCCN(C)C)cc2)nn1-c1ccccc1 (racemic) [Cmpd 107] | 15% | 
O=C(c1cc2cc([N+](=O)[O-])ccc2o1)N1CCc2c([nH]c3ccccc23)C1c1ccc2c(c1)OCO2 (centres unmarked) [Cmpd 14] | 88% | 
O=C(c1cc2ccccc2o1)N1CCc2c([nH]c3ccccc23)C1c1ccc2c(c1)OCO2 (centres unmarked) [Cmpd 16] | 88% | 

SMILES | % Inh @ 10 μM (rabbit) | % INH @ 10 μM (rabbit)
Cc1ccc(-c2cnc(N3CCc4c(n(-c5ncc(-c6ccc(C)cc6)cn5)c5ccccc45)C3c3ccc4c(c3)OCO4)nc2)cc1 (centres unmarked) [Cmpd 166] |  | 58%
CN(C)c1ccc(C2c3[nH]c4ccccc4c3CCN2C(=O)c2ccc(-c3cccc(C(F)(F)F)c3)o2)cc1 (centres unmarked) [Cmpd 82] | 13% | 
O=C(c1ccc(-c2cccc([N+](=O)[O-])c2)o1)N1CCc2c([nH]c3ccccc23)C1c1ccc2c(c1)OCO2 (centres unmarked) [Cmpd 54] | 81% | 
CN(C)CCn1c2c(c3ccccc31)CCN(C(=O)c1ccc(-c3ccc([N+](=O)[O-])cc3)o1)C2c1ccc2c(c1)OCO2 (centres unmarked) [Cmpd 37] | 95% | 
N#Cc1ccc(C2c3[nH]c4ccccc4c3CCN2C(=O)c2cnn(-c3ccccc3)c2C(F)(F)F)cc1 (centres unmarked) [Cmpd 128] | 11% | 
O=C(c1ccc(Br)o1)N1CCc2c([nH]c3ccccc23)C1c1ccc2c(c1)OCO2 (centres unmarked) [Cmpd 63] | 78% | 
CN(C)CCn1c2c(c3ccccc31)CCN(C(=O)c1cc3cc([N+](=O)[O-])ccc3o1)C2c1ccc2c(c1)OCO2 (centres unmarked) [Cmpd 13] | 94% | 
CS(=O)(=O)c1ccc(-c2cnc(N3CCc4c([nH]c5ccccc45)C3c3ccc4c(c3)OCO4)nc2)c([N+](=O)[O-])c1 (centres unmarked) [Cmpd 8] | 89% | 
CC(C)(C)c1cc(C(=O)N2CCc3c([nH]c4ccccc34)C2c2ccc(Cl)c(Cl)c2)n(Cc2ccccc2)n1 (centres unmarked) [Cmpd 133] | 1% | 
Cc1ccc(C2c3[nH]c4ccccc4c3CCN2C(=O)c2c(-c3ccccc3)noc2C)cc1C (racemic) [Cmpd 111] | 35% | 
Cc1onc(-c2ccccc2)c1C(=O)N1CCc2c([nH]c3ccccc23)C1c1ccc(Cl)c(C(F)(F)F)c1 (racemic) [Cmpd 114] | 27% | 
O=C(c1cc(-c2ccc(Cl)cc2)oc1C(F)(F)F)N1CCc2c([nH]c3ccccc23)C1c1ccc2c(c1)OCO2 (racemic) [Cmpd 105] | 40% | 
Cc1ccc(-c2ccc(C(=O)N3CCc4c(n(CCN(C)C)c5ccccc45)C3c3ccc4c(c3)OCO4)o2)c([N+](=O)[O-])c1 (centres unmarked) [Cmpd 42] | 89% | 
Cc1onc(-c2ccccc2)c1C(=O)N1CCc2c([nH]c3ccccc23)C1c1ccc(Cl)c(Cl)c1 (racemic) [Cmpd 109] | 31% | 
CC(C)(C)c1cc(C(=O)N2CCc3c([nH]c4ccccc34)C2c2ccc(Cl)c(C(F)(F)F)c2)n(Cc2ccccc2)n1 (centres unmarked) [Cmpd 138] | 13% | 
Cc1ccc(C2c3[nH]c4ccccc4c3CCN2C(=O)c2cnn(-c3ccccc3)c2C(F)(F)F)cc1C (racemic) [Cmpd 119] | 28% | 
COc1ccc2cc(C(=O)N3CCc4c([nH]c5ccccc45)C3c3ccc4c(c3)OCO4)oc2c1 (centres unmarked) [Cmpd 15] | 90% | 
O=C(c1ccc(-c2cccc([N+](=O)[O-])c2)o1)N1CCc2c(n(C(=O)c3ccc(-c4cccc([N+](=O)[O-])c4)o3)c3ccccc23)C1c1ccc2c(c1)OC(F)(F)O2 (centres unmarked) [Cmpd 19] | 15% | 
O=C(c1ccc(-c2cccc(C(F)(F)F)c2)o1)N1CCc2c([nH]c3ccccc23)C1c1cccnc1 (centres unmarked) [Cmpd 78] | 35% | 
Cc1cc(C)cc(C2c3[nH]c4ccccc4c3CCN2C(=O)c2cnn(-c3ccccc3)c2C(F)(F)F)c1 (centres unmarked) [Cmpd 126] | 12% | 
CN(C)CCCn1c2c(c3ccccc31)CCN(C(=O)c1ccc(-c3cccc(C(F)(F)F)c3)o1)C2c1ccc2c(c1)OCO2 (centres unmarked) [Cmpd 44] | 65% | 
CC(C)(C)c1cc(C(=O)N2CCc3c([nH]c4ccccc34)C2c2ccc([N+](=O)[O-])cc2)n(Cc2ccccc2)n1 (centres unmarked) [Cmpd 142] | −5% | 
Clc1ccc(-c2cnc(N3CCc4c([nH]c5ccccc45)C3c3ccc4c(c3)OCO4)nc2)cc1 (centres unmarked) [Cmpd 10] | 79% | 
O=C(c1ccc(-c2cccc([N+](=O)[O-])c2)o1)N1CCc2c([nH]c3ccccc23)C1c1ccc2c(c1)OC(F)(F)O2 (centres unmarked) [Cmpd 21] | 32% | 
O=C(c1ccc(-c2cccc(C(F)(F)F)c2)o1)N1CCc2c(n(Cc3ccncc3)c3ccccc23)C1c1ccc2c(c1)OCO2 (centres unmarked) [Cmpd 74] | 84% | 

Same assay, conditions: 10 μM test compound; rabbit PDEV; 10 µM

SMILES | % INH @ 10 μM (rabbit)
COc1ccc(-c2cnc(N3CC(O)c4c([nH]c5ccccc45)C3c3ccc4c(c3)OCO4)nc2)cc1 (stereo not drawn) [Cmpd 158, 1-(3,4-Methylenedioxy-phenyl)-2-[5-(4-methoxyphenyl)-pyrimidin-2-yl]-4-hydoxy-2,3,4,9-tetrahydro-1H-β-carboline] | 49%

Same assay, conditions: 10 μM test compound; rabbit PDEV; read-out: % INH @ 10 μM (rabbit)

SMILES | inhibition at 10 µM
CN(C)CCn1c2c(c3ccccc31)CCN(c1nc3ccccc3o1)C2c1ccc2c(c1)OCO2 (centres unmarked) [Cmpd 155] | 57%
CN(C)CCn1c2c(c3ccccc31)CCN(C(=O)c1cc3ccccc3o1)C2c1ccc2c(c1)OCO2 (centres unmarked) [Cmpd 147] | 52%
O=C(c1ccc(-c2ccccc2)o1)N1CCc2c([nH]c3ccccc23)C1c1ccc2c(c1)OCO2 (centres unmarked) [Cmpd 149] | 80%
